Where two headings read alike, the source gives them in different places.

Data set [1] can be described thus: logP determination by HPLC (EEC directive 79/831 Annex V.A8, reversed-phase C 18). In kind it is physicochemical. To be noted: for chromatographic logP: reversed-phase HPLC column (C 18); for log P2: second HPLC peak of the mixture of diastereomers. Here is the method:
The stated logP values were determined in accordance with EEC directive 79/831 Annex V.A8 by HPLC (High Performance Liquid Chromatography) using a reversed-phase column (C 18). Temperature: 43° C. In the acidic range, the determination was carried out at pH 2.3 using the mobile phases 0.1% aqueous phosphoric acid and acetonitrile; linear gradient from 10% acetonitrile to 90% acetonitrile.

Data set [2] has as its system larvae of the mustard beetle (Phaedon cochleariae). Briefly: Phaedon larvae test. In kind it is in vivo. Particulars: 168 h, cabbage leaves dipped, after 7 d, read-out: Kill rate in % after 7 d. On the procedure:
[table] To produce a suitable preparation of active compound, 1 part by weight of active compound is mixed with the stated amounts of solvent and emulsifier, and the concentrate is diluted with emulsifier-containing water to the desired concentration. Cabbage leaves (Brassica oleracea) are treated by being dipped into the preparation of active compound of the desired concentration and are populated with larvae of the mustard beetle (Phaedon cochleariae) whilst the leaves are still moist. After the desired period of time, the kill in % is […]. 100% means that all beetle larvae have been killed; 0% means that none of the beetle larvae have been killed.

The mark [3] stands for this setting: pH 2.3, first HPLC peak of the mixture of diastereomers, reversed-phase C 18, 43° C., pH 2.3, read-out: log P1.
Setting [4] is: reversed-phase C 18, 43° C., pH 2.3.
[5] abbreviates: pH 2.3, HPLC, reversed-phase column (C 18), 43° C., pH 2.3, 0.1% aqueous phosphoric acid/acetonitrile, read-out: log P.
Setting [6] is: pH 2.3, second HPLC peak of the mixture of diastereomers, reversed-phase C 18, 43° C., pH 2.3, read-out: log P2.

On to `Fc1cccc(F)c1C1=NC(c2ccc(-c3ccc(OC(F)(F)F)cc3)cc2)CC1Cl` (stereo not shown) [Example 1, 4-chloro-5-(2,6-difluorophenyl)-2-[4′-(trifluoromethoxy)-1,1′-biphenyl-4-yl]-3,4-dihydro-2H-pyrrole], for which the chromatographic logP in data set [1] (setting [3]) amounted to 5.31. In addition, the “log P2” value in data set [1] (setting [4]) amounted to 5.39.
For `Fc1cccc(F)c1C1=N[C@@H](c2ccc(-c3ccc(OC(F)(F)F)cc3)cc2)CC1Cl` (stereo partly drawn) [Example 2, (2R)-4-chloro-5-(2,6-difluorophenyl)-2-[4′-(trifluoromethoxy)-1,1′-biphenyl-4-yl]-3,4-dihydro-2H-pyrrole], in that order: 5.31 and 5.39.
The matching figures for `O=S(=O)(Oc1ccc([C@H]2CC(Cl)C(c3c(F)cccc3F)=N2)cc1)C(F)(F)F` (stereo partly drawn) [Example 3, 4-[(2R)-4-chloro-5-(2,6-difluorophenyl)-3,4-dihydro-2H-pyrrol-2-yl]phenyl-trifluoromethanesulphonate]: 4.34 and 4.40.
On to `O=S(=O)(Oc1ccc([C@H]2CC(Cl)(Cl)C(c3c(F)cccc3F)=N2)cc1)C(F)(F)F` [Example 5], for which the chromatographic logP in data set [1] (setting [5]) came to 4.88.
Same read-out and setting: the value for `Fc1cccc(F)c1C1=N[C@@H](c2ccc(-c3ccc(OC(F)(F)F)cc3)cc2)CC1(Cl)Cl` [Example 6, (2R)-4,4-dichloro-5-(2,6-difluorophenyl)-2-[4′-(trifluoromethoxy)-1,1′-biphenyl-4-yl]-3,4-dihydro-2H-pyrrole] was 5.91.
Consider `O=S(=O)(Oc1ccc(-c2ccc([C@H]3C[C@H](Cl)C(c4c(F)cccc4F)=N3)cc2)cc1)C(F)(F)F` [Example 7, 4′-[(2R)-4-chloro-5-(2,6-difluorophenyl)-3,4-dihydro-2-yl]-1,1′-biphenyl-4-yl trifluoromethanesulphonate], for which the chromatographic logP in data set [1] (setting [5]) amounted to 5.22.
As for `O=S(=O)(Oc1ccc([C@H]2CC(Br)C(c3c(F)cccc3F)=N2)cc1)C(F)(F)F` (stereo partly drawn) [Example 8, 4-[(2R)-4-bromo-5-(2,6-difluorophenyl)-3,4-dihydro-2-pyrrol-2-yl]phenyl-trifluoromethanesulphonate], the chromatographic logP came to 4.39 in data set [1] (setting [3]) and 4.49 in data set [1] (setting [6]).
`O=S(=O)(Oc1ccc([C@H]2CC(Br)(Br)C(c3c(F)cccc3F)=N2)cc1)C(F)(F)F` [Example 9, 4-[(2R)-4,4-dibromo-5-(2,6-difluorophenyl)-3,4-dihydro-2H-pyrrol-2-yl]phenyl-trifluoromethanesulphonate]: the chromatographic logP in data set [1] (setting [5]) was 4.97.
Still for that read-out and setting: the value for `Fc1cccc(F)c1C1=N[C@@H](c2ccc(-c3ccc(OC(F)(F)F)cc3)cc2)CC1(Br)Br` [Example 10, (2R)-4,4-dibromo-5-(2,6-difluorophenyl)-2-[4′-(trifluoromethoxy)-1,1′-biphenyl-4-yl]-3,4-dihydro-2H-pyrrole] was 6.01; that for `CC1(C)CC(c2ccc(-c3ccc(OC(F)(F)F)cc3)cc2)N=C1c1c(F)cccc1F` (stereo not shown) [Example 11, 4,4-dimethyl-5-(2,6-difluorophenyl)-2-[4′-(trifluoromethoxy)-1,1′-biphenyl-4-yl]-3,4-dihydro-2H-pyrrole] was 5.67.
For the compound `O=S(=O)(O)C1CC(c2ccc(Br)cc2)N=C1c1c(F)cccc1F` (stereo not shown) [Example 12, 2-(4-bromophenyl)-5-(2,6-difluorophenyl)-3,4-dihydro-2H-pyrrole-4-sulphonic acid], the chromatographic logP in data set [1] (setting [3]) was 1.4; in data set [1] (setting [6]), 1.6.
Turning to `O=S(=O)(O)C1CC(c2ccc(-c3ccc(OC(F)(F)F)cc3)cc2)N=C1c1c(F)cccc1F` (stereo not shown) [Example 13, 5-(2,6-difluorophenyl)-2-[4′-(trifluoromethoxy)-1,1′-biphenyl-4-yl]-3,4-dihydro-2H-pyrrole-4-sulphonic acid], the “log P1” value in data set [1] (first HPLC peak of the mixture of diastereomers, reversed-phase C 18, 43° C., pH 2.3) came to 2.29. Besides, the chromatographic logP in data set [1] (setting [3]) was determined as 2.32; in data set [1] (setting [6]), 2.46.
Regarding `Fc1cccc(F)c1C1=N[C@@H](c2ccc(-c3ccc(OC(F)(F)F)cc3)cc2)CC1=Cc1ccc(Br)cc1` [Example 14, (2R)-4-(4-bromobenzylidene)-5-(2,6-difluorophenyl)-2-[4′-(trifluoromethoxy)-1,1′-biphenyl-4-yl]-3,4-dihydro-2H-pyrrole], the chromatographic logP in data set [1] (setting [5]) was determined as 6.43.
As to `CCOS(=O)(=O)C1CC(c2ccc(-c3ccc(OC(F)(F)F)cc3)cc2)N=C1c1c(F)cccc1F` (stereo not shown) [Example 15, ethyl 5-(2,6-difluorophenyl)-2-[4′-(trifluoromethoxy)-1,1′-biphenyl-4-yl]-3,4-dihydro-2H-pyrrole-4-sulphonate], the chromatographic logP in data set [1] (setting [5]) stood at 4.77.
The same measure, in the same setting: the value for `Fc1cccc(F)c1C1=NC(c2ccc(-c3ccc(OC(F)(F)F)cc3)cc2)CC1=Cc1ccccc1` (stereo not shown) [Example 16, 4-benzylidene-5-(2,6-difluorophenyl)-2-[4′-(trifluoromethoxy)-1,1′-biphenyl-4-yl]-3,4-dihydro-2H-pyrrole] was 5.77; that for `CC(C)C=C1CC(c2ccc(-c3ccc(OC(F)(F)F)cc3)cc2)N=C1c1c(F)cccc1F` (stereo not shown) [Example 17, 4-(2-methylpropylidene)-5-(2,6-difluorophenyl)-2-[4′-(trifluoromethoxy)-1,1′-biphenyl-4-yl]-3,4-dihydro-2H-pyrrole] was 5.8.
As to `Fc1cccc(F)c1C1=NC(c2ccc(-c3ccc(OC(F)(F)F)cc3)cc2)CC1(Cl)Cl` (stereo not shown) [drawing 56], the pest or weed control at 1000 ppm in data set [2] amounted to 100%.
Same read-out and setting: then `Fc1cccc(F)c1C1=NC(c2ccc(-c3ccc(OC(F)(F)F)cc3)cc2)CC1Cl` (stereo not shown) [drawing 57], with 100%; and `Fc1cccc(F)c1C1=N[C@@H](c2ccc(-c3ccc(OC(F)(F)F)cc3)cc2)CC1(Cl)Cl` [drawing 58], with 100%.
Same read-out and setting: then `Fc1cccc(F)c1C1=N[C@@H](c2ccc(-c3ccc(OC(F)(F)F)cc3)cc2)CC1(Br)Br` [drawing 59], with 100%; and `Fc1cccc(F)c1C1=N[C@@H](c2ccc(-c3ccc(OC(F)(F)F)cc3)cc2)C/C1=C\c1ccc(Br)cc1` [drawing 60], with 100%; and `O=S(=O)(Oc1ccc([C@H]2CC(Cl)C(c3c(F)cccc3F)=N2)cc1)C(F)(F)F` (stereo partly shown) [drawing 61], with 100%.
Same read-out and setting: the value for `O=S(=O)(Oc1ccc([C@H]2CC(Cl)(Cl)C(c3c(F)cccc3F)=N2)cc1)C(F)(F)F` [drawing 62] was 100%; that for `O=S(=O)(Oc1ccc([C@H]2CC(Br)C(c3c(F)cccc3F)=N2)cc1)C(F)(F)F` (stereo partly shown) [drawing 63] was 100%.
As to `O=S(=O)(Oc1ccc(-c2ccc([C@H]3C[C@H](Cl)C(c4c(F)cccc4F)=N3)cc2)cc1)C(F)(F)F` [drawing 64], the pest or weed control at 1000 ppm in data set [2] came to 100%.
`CC(C)(C)OC(=O)N1C(=O)C(C)(C)CC1c1ccc(-c2ccc(OC(F)(F)F)cc2)cc1` (stereo not shown) [tert-butyl 3,3-dimethyl-2-oxo-5-[4′-(trifluoromethoxy)-1,1′-biphenyl-4-yl]-1-pyrrolidinecarboxylate]: the chromatographic logP in data set [1] (HPLC, reversed-phase column (C 18), 43° C., pH 2.3, 0.1% aqueous phosphoric acid/acetonitrile, read-out: log P) came out at 4.99.
For the compound `CC(C)(C)OC(=O)NC(CC(C)(C)C(=O)c1c(F)cccc1F)c1ccc(-c2ccc(OC(F)(F)F)cc2)cc1` (stereo not shown) [tert-butyl 4-(2,6-difluorophenyl)-3,3-dimethyl-4-oxo-1-[4′-(trifluoromethoxy)-1,1′-biphenyl-4-yl]butylcarbamate], the chromatographic logP in data set [1] (setting [5]) came out at 6.45.

(Values after patent US20040077881A1, “$G(d)1-pyrrolines used in pest control” (priority 2001, published 2004).)
